Results as given in patent US8501911B2, “Methods of reducing inflammation and mucus hypersecretion” (Biomarck Pharmaceuticals, Ltd, priority 1999, dated 2013).
“Also recorded” adds a separate entry of the source. Residues, ends and D or L forms follow the SMILES beside them. *: point of attachment. Myristoyl = CCCCCCCCCCCCCC(=O)*

Columns and labels:
[1] = test system: human neutrophils; assay: Inhibition of release of myeloperoxidase (MPO) from PMA-stimulated human neutrophils; format: cell-based; conditions: at 100 μM of test peptide; 100 nM PMA
Description: Human neutrophil isolation: Human neutrophils were isolated according to a slightly modified method previously described by Akasaki T, Koga H, and Sumimoto H., Phosphoinositide 3-kinase-dependent and -independent activation of the small GTPase Rac2 in human neutrophils, J. Biol. Chem. 274:18055-18059, 1999. Alternatively, human neutrophils were isolated as previously described (see Takashi S, OkuboY, Horie S. Contribution of CD54 to human eosinophil and neutrophil superoxide production. J. Appl. Physiol. 91:613-622, 2001) with slight modifications. Briefly, heparinized venous blood was obtained from normal healthy human volunteers, diluted with RPMI-1640 (Cellgro; Mediatech, Inc., Herndon, Va.) at a ratio of 1:1, layered onto a Histopaque (density, 1.077 g/ml; Sigma-Aldrich Co., St. Louis, Mo.), and centrifuged at 400 g for 20 min at 4° C. The supernatant and mononuclear cells at the interface were carefully removed, and erythrocytes in the sediment were lysed in chilled distilled water. Isolated granulocytes were washed twice with Hanks' balanced salts solution (HBSS) and resuspended in HBSS on ice. The neutrophils used for the experiments were of >98% purity with <2% contamination by eosinophils, and the viability was >99% as determined by Trypan blue dye exclusion.
Measurement of released MPO activity: Purified human neutrophils suspended in HBSS were aliquoted at 4×10^6 cells/ml in 15 ml tubes and preincubated with either 50 or 100 μM of test peptide (dissolved in PBS, pH 7.0) for 10 min at 37° C. […] Secretions were quantified by using as a standard, human MPO.
MPO activity in the cell supernatant was assayed using tetramethylbenzidine (TMB) based on a previously established technique (Paige L, Mahmudi-Azer S, Bablitz B, Hage S C, Velazquez J R, Man S F P, and Moqbel R. Rapid Mobilization of intracellularly stored RANTES in response to Interferon-γ in human eosinophils. Blood, 94:23-32, 1999). […] The reaction was terminated by addition of 50 μl of 1M H2SO4 and absorbance was read at 450 nm in a spectrophotometric microplate reader (Molecular Devices, Sunnyvale, Calif.).

[2] = Solubility in 0.5 N saline; format: physicochemical; conditions: in 0.5 N Saline at pH 6.5
[3] = test system: MARCKS; assay: MARCKS phosphorylation in NHBE cells (radiolabeled immunoprecipitation assay); format: cell-based, human
Description: NHBE cells were labeled with [^32 P]orthophosphate and then exposed to the reagents: (a) Rp-8-Br-PET-cGMP (100 μM); (b) okadaic acid (500 nM); (c) 8-Br-cGMP (1 μM); and (d) PMA (100 nM). MARCKS phosphorylation in response to the treatments was evaluated by immunoprecipitation assay.
To reveal molecular events by which MARCKS links kinase activation to mucin secretion, phosphorylation of MARCKS in response to PKC/PKG activation was investigated in depth, and results are presented as Results-I-4A. […] Once phosphorylated, MARCKS was translocated from the plasma membrane to the cytoplasm. More specifically, the activation of PKC results in MARCKS phosphorylation in NHBE cells. Cells were labeled with [^32 P]orthophosphate for 2 h and then exposed to the stimulatory and/or inhibitory reagents (see below). MARCKS phosphorylation in response to the treatments was evaluated by immunoprecipitation with the following specifics, designated Results-I-4A:
[^32P]phosphate, cells were preincubated for 2 h in phosphate-free Dulbecco's modified Eagle's medium containing 0.2% bovine serum albumin and then labeled with 0.1 mCi/ml [^32 P]orthophosphate (9000 Ci/mmol, PerkinElmer Life Sciences) for 2 h. For labeling with [^3H]myristic acid or ^3H-amino acids, cells were incubated overnight in medium containing 50 μCi/ml [^3H]myristic acid (49 Ci/mmol, PerkinElmer Life Sciences) or 0.2 mCi/ml [^3H]leucine (159 Ci/mmol, PerkinElmer Life Sciences) plus 0.4 mCi/ml [^3H]proline (100 Ci/mmol, PerkinElmer Life Sciences). Following labeling, cells were exposed to stimulatory reagents for 5 min. When an inhibitor was used, cells were preincubated with the inhibitor for 15 min prior to stimulation. At the end of the treatments, cells were lysed in a buffer containing 50 mM Tris-HCl (pH 7.5), 150 mM NaCl, 1 mM EDTA, 10% glycerol, 1% Nonidet P-40, 1 mM phenylmethylsulfonyl fluoride, 1 mM benzamidine, 10 μg/ml pepstatin A, and 10 μg/ml leupeptin. Trichloroacetic acid precipitation and scintillation counting may determine the radiolabeling efficiency in each culture. Immunoprecipitation of MARCKS protein was carried out according to the method of Spizz and Blackshear using cell lysates containing equal counts/min. Spizz et al., J. Biol. Chem. 271, 553-562 (1996). Precipitated proteins were resolved by 8% SDS-polyacrylamide gel electrophoresis and visualized by autoradiography. Anti-human MARCKS antibody (2F12) and nonimmune control antibody (6F6) were used in this assay.
Phosphorylation of MARCKS by PMA was attenuated by Calphostin C (500 nM). NHBE cells also contained substantial amounts of cGMP-dependent protein kinase type 1α (PKG-1α) activity, which was localized to the cytosolic fraction. […] In addition, the phosphorylation of MARCKS induced by PMA was reversed by incubation with 8-Br-cGMP (10 μM).

[4] = inhibitor 500 nM + 100 nM PMA + 1 μM 8-Br-cGMP

CCCCCCCCCCCCCC(=O)NCC(=O)N[C@@H](C)C(=O)N[C@@H](CCC(N)=O)C(=O)N[C@@H](Cc1ccccc1)C(=O)N[C@@H](CO)C(=O)N[C@@H](CCCCN)C(=O)N[C@H](C(=O)N[C@@H](C)C(=O)N[C@@H](C)C(=O)N[C@@H](CCCCN)C(=O)NCC(=O)N[C@@H](CCC(=O)O)C(=O)O)[C@@H](C)O [SEQ ID NO: 13, N-myristoyl-GAQFSKTAAKGE] (Myristoyl-GAQFSKTAAKGE-OH; C-terminus assumed)
% Inhibition MPO [1]: 43.2% | solubility [2]: > 2000 µg/mL

Nc1nc2c(nc(Br)n2[C@@H]2O[C@@H]3COP(=O)(O)O[C@H]3[C@H]2O)c(=O)[nH]1 [8-Br-cGMP]
Effect on PMA-induced phosphorylation of MARCKS ([3]; 8-Br-cGMP 10 μM (Example 6)): reversed | MARCKS phosphorylation (band in immunoprecipitation assay) ([3]; reagent 1 μM alone): faint band; also recorded: no band; also recorded: only a trace amount

CCCCCCCCCCCCCC(=O)O[C@@H]1[C@@H](C)[C@@]2(O)[C@@H](C=C(CO)C[C@]3(O)C(=O)C(C)=C[C@@H]23)[C@@H]2C(C)(C)[C@]12OC(C)=O [PMA, phorbol 12-myristate 13-acetate]
Increase in MARCKS phosphorylation ([3]; PMA 100 nM): 3-4 fold | MARCKS phosphorylation (band in immunoprecipitation assay) ([3]; reagent 100 nM alone): dark band; also recorded: very dark band; also recorded: showed a band; also recorded: strong band; also recorded: phosphorylated

CCCCCCCCCCCCCC(=O)NCC(=O)N[C@@H](C)C(=O)N[C@@H](CCC(N)=O)C(=O)N[C@@H](Cc1ccccc1)C(=O)N[C@@H](CO)C(=O)N[C@@H](CCCCN)C(=O)N[C@H](C(=O)N[C@@H](C)C(=O)N[C@@H](C)C(=O)N[C@@H](CCCCN)C(=O)NCC(=O)N[C@@H](CCC(=O)O)C(=O)N[C@@H](C)C(=O)N[C@@H](C)C(=O)N[C@@H](C)C(=O)N[C@@H](CCC(=O)O)C(=O)N[C@@H](CCCNC(=N)N)C(=O)N1CCC[C@H]1C(=O)NCC(=O)N[C@@H](CCC(=O)O)C(=O)N[C@@H](C)C(=O)N[C@@H](C)C(=O)N[C@H](C(=O)N[C@@H](C)C(=O)O)C(C)C)[C@@H](C)O [MANS peptide] (Myristoyl-GAQFSKTAAKGEAAAERPGEAAVA-OH; C-terminus assumed)
% Inhibition MPO [1]: 31.2% | solubility [2]: < 5000 µg/mL

CCCCCCCCCCCCCC(=O)NCC(=O)N[C@H](C(=O)N[C@@H](C)C(=O)N1CCC[C@H]1C(=O)N[C@@H](C)C(=O)N[C@@H](C)C(=O)N[C@@H](CCC(=O)O)C(=O)NCC(=O)N[C@@H](C)C(=O)NCC(=O)N[C@@H](C)C(=O)N[C@@H](CCC(=O)O)C(=O)N[C@H](C(=O)N[C@@H](CCCCN)C(=O)N[C@@H](CCCNC(=N)N)C(=O)N[C@@H](C)C(=O)N[C@@H](CO)C(=O)N[C@@H](C)C(=O)N[C@@H](CCC(=O)O)C(=O)N[C@@H](C)C(=O)N[C@@H](CCCCN)C(=O)N[C@@H](CCC(N)=O)C(=O)N[C@@H](C)C(=O)N[C@@H](Cc1ccccc1)C(=O)O)C(C)C)[C@@H](C)O [RNS peptide, reference compound] (Myristoyl-GTAPAAEGAGAEVKRASAEAKQAF-OH; C-terminus assumed)
% Inhibition MPO [1]: 0% | solubility [2]: > 15000 µg/mL

C[C@@](O)(/C=C/[C@H]1CC=CC(=O)O1)[C@@H](C[C@@H](O)\C=C/C=C\C=C\CO)OP(=O)(O)O [fostriecin]
Effect on PKG-induced MARCKS dephosphorylation ([3]; 1-500 nM, with PMA 100 nM + 8-Br-cGMP 1 μM): inhibited PKG-induced MARCKS dephosphorylation in a concentration-dependent manner | MARCKS phosphorylation (band in immunoprecipitation assay) [3, 4]: strong band | MARCKS phosphorylation (band in immunoprecipitation assay) ([3]; inhibitor alone, concentration not stated (I-5C lane 9)): only a trace amount

CCCCCCCCCCCCCC(=O)NCC(=O)N[C@@H](C)C(=O)N[C@@H](CCC(N)=O)C(=O)N[C@@H](Cc1ccccc1)C(=O)N[C@@H](CO)C(=O)N[C@@H](CCCCN)C(=O)N[C@H](C(=O)N[C@@H](C)C(=O)N[C@@H](C)C(=O)N[C@@H](CCCCN)C(=O)O)[C@@H](C)O [SEQ ID NO: 15, N-myristoyl-GAQFSKTAAK] (Myristoyl-GAQFSKTAAK-OH; C-terminus assumed)
solubility [2]: > 10000 µg/mL

C=C1[C@@H](O)[C@@H]2O[C@]3(CC[C@H](/C=C/[C@@H](C)[C@@H]4CC(C)=C[C@@]5(O[C@H](C[C@@](C)(O)C(=O)O)CC[C@H]5O)O4)O3)CC[C@H]2O[C@@H]1[C@@H](O)C[C@H](C)[C@H]1O[C@@]2(CCCCO2)CC[C@H]1C [okadaic acid]
Effect on reversal of MARCKS phosphorylation by 8-Br-cGMP (10 μM) ([3]; 500 nM (Example 6)): inhibited this effect | MARCKS phosphorylation (band in immunoprecipitation assay) ([3]; inhibitor 500 nM + 100 nM PMA): dark band | MARCKS phosphorylation (band in immunoprecipitation assay) [3, 4]: dark band | MARCKS phosphorylation (band in immunoprecipitation assay) ([3]; inhibitor 500 nM + 100 nM PMA + 1 μM 8-Br-cGMP, listed as Okadaic acid): showed a band | MARCKS phosphorylation (band in immunoprecipitation assay) ([3]; inhibitor 500 nM + 100 nM PMA, listed as Okadaic acid): showed a band | MARCKS phosphorylation (band in immunoprecipitation assay) ([3]; inhibitor 500 nM + 1 μM 8-Br-cGMP): medium dark band | MARCKS phosphorylation (band in immunoprecipitation assay) ([3]; inhibitor 500 nM + 1 μM 8-Br-cGMP, listed as Okadaic acid): faint band | MARCKS phosphorylation (band in immunoprecipitation assay) ([3]; inhibitor 500 nM alone): faint band
